US6441027B1, “Method of regulating the female reproductive system through angiogenesis inhibitors” (Children's Medical Center Corporation, priority 1996, dated 2002)
Entries after “also recorded” stand apart in the source; their conditions may differ.

How the values were obtained:
[1] = tested on: bFGF induced neovascularization; assay: Mouse corneal micropocket model, bFGF pellet; assay type: in vivo; settings: mouse cornea, n=10/group, p<0.001
Description: (§1) To confirm that angiogenesis was being inhibited, AGM-1470 was tested in vivo. A mouse corneal micropocket model was used which was recently developed to model tumor angiogenesis. Pellets of bFGF or VEGF were implanted in the mouse cornea resulting in aggressive neovascularization. AGM-1470 inhibited the amount of bFGF or VEGF induced neovascularization by 47% or 62% respectively (n=10/group p<0.001).

[2] = tested on: VEGF induced neovascularization; assay: Mouse corneal micropocket model, VEGF pellet; assay type: in vivo; settings: mouse cornea, n=10/group, p<0.001
Description: as §1

inseminated mice = assay: Gross morphology and hematoxylin/eosin histology of gravid uteri, embryos and ovaries; assay type: in vivo, mouse
Description: FIGS. 1A-1I show the gross morphology of gravid mouse uteri. Inseminated mice were treated with AGM-1470 30 mg/kg s.c. or saline on Embryonic day 1 (E1) or E7, and mice were sacrificed at E9, 13 or 18. FIG. 1A, 1B, and 1C show the normal pattern of growth of fetuses on E9, E13 and E18.
FIGS. 2A-2F show hematoxylin/eosin staining of mouse embryos on E9. Inseminated mice were treated with AGM-1470 […] s.c. or saline on E1 or E7, and mice were sacrificed at E9. Uteri were resected and stained with hematoxylin/eosin as described in the material and methods section. […] (P−placenta, D=decidua).
Gravid uteri and ovaries were resected enbloc, weighed, fixed and Carnoy's fixative, and embedded in paraffin according to standard histological techniques. Sections were cut at 6 to 10 micrometers and stained with hematoxylin and eosin. When AGM-1470 was injected on E14, fetuses were allowed to come to term.

decidual stromal cells = assay: PCNA staining of decidua on E6; assay type: in vivo, mouse
Description: To test this hypothesis, mice were treated with AGM-1470 on E1 and sacrificed at E6, a time point prior to placental formation. The uteri of the mice were examined by antibodies to Factor VIII and PCNA to determine if there was any difference in the degree of endometrial angiogenesis or the proliferative response of the decidua induced by trophoblast invasion. However, in the decidua there was a 50% decrease in the proliferation of stromal cells in the AGM-1470 treated mice as compared to control (PCNA staining/X630 field in control was 48%±3, n=4, versus 24%±5, n=4, P≦0.005 in AGM-1470 treated mice. See FIG. 4A and 4B). […]
To determine the rate of cellular proliferation, staining for proliferating cell nuclear antigen (PCNA) was performed. […] Positive staining was detected by using horse radish peroxidase-conjugated secondary (Dako) and tertiary (Dako) antibodies, and DAB as a chromagen. The PCNA labeling index was determined by counting the percentage of stained cells under light microscopy within selected 630× fields. A minimum of 1,000 cells were counted for each specimen.
In experiments with AGM-1470 treatment of pregnant mice, transverse sections through embryos contained within the uterus were stained. Microvessels density was determined at the intersite endometrium and PCNA was determined in the decidual stroma. […]

plugged mice = assay: Reversibility: remating after fetal resorption; assay type: in vivo, mouse; settings: 30 mg/kg on E1 (n=3) or E7 (n=3), remated six weeks after E18 laparotomy
Description: To establish long-term safety, the course of recovery of the reproductive system after fetal resorption was studied. Six plugged mice were injected with 30 mg/kg AGM-1470 on E1 (n=3) or E7 (n=3) and then anesthetized on E18 in a methoxyflurane (Pittman-Moore, Mandelein, Ill.) chamber so that a laparotomy could be performed. The uteri were inspected to confirm the presence of resorption cites. The incisions were closed with a running 3-0 ethelon™ black monofilament nylon suture (Ethicon, Somerville; N.J.). Animals were observed until fully recovered. After an additional six weeks the mice were remated to determine their ability to become inseminated and deliver a normal litter. […] Therefore, there is a functional recovery of the uterus after AGM-1470 treatment on E1 or E7.

[3] = tested on: non-pregnant cycling mice; assay: Cycling mice, chronic treatment: estrous cycle and mating; assay type: in vivo, mouse
From the text: Female mice were housed individually in cages and acclimated for one week. The stage of the estrous cycles was checked by visual inspection of the vagina according to the criteria of Champlin^28 and the examiner was blinded to the treatment group. Determining the stage of the estrous cycle in the mouse by the appearance of the vagina. Animals were monitored daily and graded for color, size of opening, striations and swelling. Based on these observations each individual was assigned to a cycle stage (diestrus, proestrus, estrus, or metestrus).
(§2) Mice were randomized and received either AGM-1470 30 mg/kg s.c. or saline 0.1 ml s.c. every other day for 16 days (approximately four estrous cycles). On the last of four days of treatment mice were housed with male mice to see if successful mating and conception would occur. On day 16 mice were weighed and sacrificed by cervical dislocation. The ovaries were resected enbloc, fixed in Carnoy's fixative, and embedded in paraffin according to standard histologic techniques. Sections were cut at 6 microns and stained with hematoxylin and eosin.

corpora lutea = assay: Cycling mice, chronic treatment: examination of the ovaries; assay type: in vivo, mouse; settings: 30 mg/kg every other day for 16 days
Description: as §2

angiogenesis = settings: cited from earlier work
[4] = 30 mg/kg s.c. every other day, greater than 100 days of therapy; cited from earlier work

Question: With CO[C@@H]1[C@H](OC(=O)NC(=O)CCl)CC[C@]2(CO2)[C@H]1[C@@]1(C)O[C@@H]1CC=C(C)C [AGM-1470, O-chloroacetylcarbamoyl fumagillol] as the compound, how does the “inhibition of bFGF induced neovascularization” value [1] read?
Answer: Its value is 47%.

Question: And the “inhibition of VEGF induced neovascularization” value [2]?
Answer: Its value is 62%.

Question: What about the “placental development (histology)” value (inseminated mice; 30 mg/kg on E1) of the same compound?
Answer: The value was “failure of placental development”.

Question: What about the “placental development (histology)” value (inseminated mice; 30 mg/kg on E7) of the same compound?
Answer: Its value is “inhibition of placental and fetal development; also recorded: decrease in nucleated red blood cells and labyrinth structure in the placenta”.

Question: And the “gross morphology of gravid uteri” value (inseminated mice; 30 mg/kg s.c. on E7)?
Answer: The value was “hemorrhage around the implantation sites by E13; also recorded: resorption by E18”.

Question: And the “fetal histology on E9” value (inseminated mice; both treated groups (E1 or E7))?
Answer: Its value is “Fetal disorganization”.

Question: And the “embryo histology on E9” value (inseminated mice; injected on E1)?
Answer: Its value is “small, disorganized embryo”.

Question: What about the “nucleated red blood cells in E9 embryos” value (inseminated mice; injected on E7) of the same compound?
Answer: Its value is “reduced nucleated red blood cells in the embryo; also recorded: marked decrease in nucleated red blood cells”.

Question: And the “histology of the ovaries” value (inseminated mice; single dose on E1 or E7, all time points)?
Answer: The value was “appeared normal”.

Question: What about the “gross morphology of gravid uteri” value (inseminated mice; treated on E1, after E9) of the same compound?
Answer: Its value is “failure of further growth with resorption”.

Question: And the “decrease in proliferation of decidual stromal cells vs control” value (decidual stromal cells; treated on E1, sacrificed E6)?
Answer: Its value is 50%.

Question: And the “PCNA staining/X630 field in decidua” value (decidual stromal cells; treated on E1, sacrificed E6, n=4)?
Answer: Its value is 24%±5.

Question: And the litters after remating (plugged mice)?
Answer: The litters after remating was “normal litters in all mice”.

Question: And the “first occurrence of abnormal (closed, red, dry) vaginal morphology” value ([3]; 30 mg/kg s.c. every other day)?
Answer: The value was 5.6±3.2 days of treatment.

Question: What about the “mice with new vaginal morphology within 10 days of start of treatment” value ([3]; 30 mg/kg s.c. every other day) of the same compound?
Answer: The value was 8 of 8.

Question: What about the “effect on estrous cycle” value ([3]; 30 mg/kg s.c. every other day for 16 days) of the same compound?
Answer: Its value is “interruption of the normal estrous cycle”.

Question: What about the “time to full recovery after drug was discontinued” value ([3]; chronic high dose, sexually mature cycling mice) of the same compound?
Answer: Its value is 7 weeks.

Question: What about the “successful mating (plugging)” value ([3]; housed with males on last four days of 16 day treatment) of the same compound?
Answer: Its value is “no visually evident plugging”.

Question: What about the “corpora lutea smaller than control” value (corpora lutea) of the same compound?
Answer: The value was 61%.

Question: And the “number of corpora lutea” value (corpora lutea; vs control)?
Answer: Its value is “fewer; also recorded: decreased size and number of corpora lutea”.

Question: And the “activity relative to parent compound fumagillin” value (angiogenesis)?
Answer: Its value is 50 times.

Question: What about the “toxicity of dosing schedule” value [4] of the same compound?
Answer: The value was “no evident toxicity”.
